The results in this text go back to PubChem BioAssay (NCI).

Values joined by “and” are separate entries in the source; they are usually repeats but may differ in a detail not shown here. Identical values can stand only once.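 Each compound was tested at five concentrations against cells in 96-well plates for 48 hours. Here, GI50 denotes the concentration required for 50% inhibition of growth. TGI is the concentration that stops growth completely.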

Common to all, as to assay: NCI-60 cell line screen, 48 h
For experiment [1], the system named is HCT-15 colon.
The test system of experiment [2] is A549 NSCLC.
For experiment [3], the system named is SK-MEL-2 melanoma.
Experiment [4] deals with HOP-62 NSCLC.
Experiment [5] deals with SNB-19 CNS.
The test system of experiment [6] is SN12C renal.
The test system of experiment [7] is COLO 205 colon.
Experiment [8] has as its system SF-295 CNS.
The test system of experiment [9] is HCT-116 colon.
For experiment [10], the system named is NCI-H522 lung.

`O=C(CC/C(CC(=O)c1ccc(Cl)cc1)=N\O)Nc1cccc(Cl)c1`: the TGI in experiment [1], in experiment [2], in [3], in experiment [4], in experiment [5] and in experiment [6] was greater than 100 µM each time. The TGI in experiment [7] and in experiment [8] was greater than 100 µM throughout.

On to `CC(=O)O[C@H]1C(=O)[C@@]2(C)C([C@H](OC(=O)c3ccccc3)[C@]3(O)C[C@H](OC(=O)[C@H](O)[C@@H](NC(=O)c4ccc(Cl)cc4)c4ccccc4)C(C)=C1C3(C)C)C1(OC(C)=O)CO[C@@H]1C[C@@H]2O` (stereo not given in full), for which the GI50 in experiment [1] is 0.2 µM; in experiment [2], 0.0219 µM; in experiment [4] it was 0.261 µM; in experiment [5], 0.0849 µM; in [6] it was 0.0166 µM; in [8], 0.177 µM. Further, the TGI in experiment [1] is 25 µM and 4.92 µM; in experiment [2] it was 25 µM and > 100 µM; in experiment [9], 3.31 µM and 1.85 µM; in experiment [4], 25 µM and 25.2 µM; in experiment [5] it was 25 µM and > 100 µM; in experiment [6], 25 µM and 83.2 µM.

For `Cc1cc2nc3c(C(OC4OC(CO)C(O)C(O)C4O)C(O)CO)nn(-c4ccc(F)cc4)c3nc2cc1C` (stereo not given), the TGI in [1], in [9], in experiment [4], in [5], in experiment [10] and in experiment [6] was greater than 100 µM in each case. For the same molecule, in [8], the TGI is greater than 100 µM.

For `COc1cc(COC(=O)N(C)[C@@H](Cc2ccccc2)C(=O)O)c([N+](=O)[O-])cc1OC`, the TGI in experiment [1], in experiment [2], in experiment [9], in experiment [4], in experiment [5] and in [6] was greater than 100 µM in each case. In addition, in [8], the TGI was greater than 100 µM.

For `C=C(/C=C/C=C(\CO)CCC=C(C)C)[C@H]1CCC2([C@H](CCCO)/C(=C(/C)C=O)CC[C@]2(C)O)[C@H]1O` (stereo not given in full), the TGI in [1], in [2], in experiment [9], in [3], in experiment [4] and in experiment [5] was greater than 100 µM each time. In addition, the TGI in experiment [7] and in experiment [8] was greater than 100 µM throughout.

Regarding `CC[C@]1(O)C[C@@H]2CN(CCc3c([nH]c4ccccc34)[C@@](C(=O)OC)(c3cc4c(cc3OC)N(C)[C@H]3[C@@](O)(C(=O)OC)[C@H](OC(=O)CCCBr)[C@]5(CC)C=CCN6CC[C@]43[C@@H]65)C2)C1`, the GI50 in experiment [1] is 0.12 µM; in experiment [2], less than 0.0166 µM; in [9], less than 0.01 µM; in experiment [3], 0.0331 µM; in [4], 0.0386 µM; in [5] it was less than 0.0215 µM. Also, the GI50 in experiment [6] is 0.046 µM. Further, the TGI is greater than 100 µM in experiment [1]; greater than 100 µM in experiment [2]; greater than 32.4 µM in experiment [9]; greater than 100 µM in experiment [3]; greater than 100 µM in [4]; greater than 100 µM in experiment [5]. Moreover, in [6], the TGI is greater than 100 µM.

For `COc1ccc(C2C(C(=O)O)=C(COC(C)=O)Oc3cc4c(cc32)OCO4)c(OC)c1` (stereo not given), the TGI in [1], in experiment [2], in experiment [9], in [3], in [4] and in [5] was greater than 100 µM throughout. Further, the TGI in experiment [6], in experiment [7] and in experiment [8] was greater than 100 µM each time.

For the molecule `Nc1nc2c([nH]1)c1[nH]c3ccccc3c1c1[nH]c3ccccc3c21`, the GI50 was 13.6 µM in experiment [1]; 17.1 µM in experiment [2]; 5.24 µM in [9]; 16.2 µM in experiment [3]; 13.8 µM in experiment [4]; 12.8 µM in [5]. The GI50 in [10] is 17.2 µM; in experiment [6], 15.3 µM; in experiment [8], 13.9 µM. The TGI in experiment [1] was 31.4 µM; in experiment [2], 33.4 µM; in experiment [9], 18 µM; in experiment [3], 32.4 µM; in [4], 27.3 µM; in experiment [5] it was 25.5 µM. Further, the TGI in experiment [10] was determined as 34.1 µM; in experiment [6] it was 29.7 µM; in [8] it was 27.5 µM.

Regarding `CCOC(=O)C(=O)Nc1nc2ccc(OC)cc2s1`, the TGI in experiment [1], in [2], in experiment [3], in experiment [4], in experiment [5] and in [6] was greater than 100 µM in each case. Moreover, the TGI in experiment [7] and in experiment [8] was greater than 100 µM each time.

Take `Cc1cn([C@H]2CN(O)C[C@@H](CO)O2)c(=O)[nH]c1=O`: the TGI in experiment [1], in experiment [2], in experiment [9], in [3], in experiment [4] and in experiment [5] was greater than 100 µM throughout. Besides, the TGI in [6], in experiment [7] and in [8] was greater than 100 µM throughout.
